Reference: patent US5399566A, “Pyridine derivatives having angiotensin II antagonism” (Meiji Seika Kabushiki Kaisha, priority 1990, dated 1995)

How the values were obtained:
Renal hypertensive rats = experiment: Hypotensive effect in renal hypertensive rats (RHR); assay type: in vivo, Spraque-Dawley (SD) male rats; settings: oral, 3 mg/kg
Procedure: Renal hypertensive rats, a model of high-renin hypertension, were prepared according to the method of J. L. Cangiano et al. (Journal of Pharmacology and Experimental Therapeutics, 208, 310-313, 1979). That is, the experiment was conducted with Spraque-Dawley (SD) male rats (250-300 g), which were ligated the left renal artery with a thread under the anesthetic condition, so that the systolic blood pressure was increased more than 150 mmHg on 1 week after the operation. The subject compounds were orally administered in the form of a homogeneous suspension in a 0.5% aqueous carboxymethylcellulose solution, and a mean blood pressure was measured in the same manner as in the paragraph 1-2. Heart rate was counted with a cardiotachmeter triggered by the arterial pulse.

ddY male mice = experiment: Antianxiety effect, light and dark box; assay type: in vivo; settings: oral, 0.1 μg/kg, 1 hour
Procedure: (§1) The subject compounds were examined on their antianxiety effect with the light and dark box according to the method described by B. Costall et al. (Pharmacology Biochemistry and Behavior, 32, 777-785, 1989) and with the elevated plus maze by S. Pell et al. (Journal of Neuroscience Methods, 14, 149-167, 1985).
The subject compounds were administered orally to ddY male mice (4-5 weeks old) at a dose of 0.1-1000 μg/kg. After 1 hour they were placed in the light chamber of the light and dark box, and after 10 seconds the door at the boundary between the light chamber and the dark chamber was opened. The behavior of the animals in the light and dark box under a sound-proof condition for four minutes was observed and examined by comparing the measurements of latency to the dark chamber, shuttling between the light and dark chambers and duration in the light chamber with those in the group to which only a solvent was administered. The subject compounds were orally administered in the form of a homogeneous suspension or solution in a 0.5% aqueous carboxymethyl cellulose solution.

[1] = system: electric shock induced amnesia mice; experiment: Cognitive enhancing effect, step through passive avoidance in electric shock induced amnesia mice; assay type: in vivo, ddY strain male mice; settings: oral, 10 μg/kg
Procedure: In order to examine the influence of the compounds on the learning and memory facilitating, an amnesia model with use of electric shock in a step through type passive avoidance box (PA-M5 model; OBARA IKA-SANGYOSHA) in accordance with the method described by C. Giurgea et al. (Progressive of Neuropsychopharmacology, 1, 235-247 (1977)) was used.
The subject compounds were orally administered at a dose of 1 ng/kg -1 mg/kg in the form of a homogeneous suspension in a 0.5% aqueous carboxymethylcellulose solution to ddY strain male mice (4-5 weeks) 1 hour before acquisition-trial and 1 hour before retrievaltrial. The animal was first placed in the light chamber, and the door at the boundary between the light and dark chamber was opened after 30 seconds. At the same time as the animal stepped into the dark chamber, electric footshock (40 V) was delivered to the floor of the dark chamber so that the animal acquired avoidance response (acquisition-trial). […] That is, the animal was placed again in the light chamber, the door was opened after 30 seconds, and the latency of the animal into the dark -chamber was measured for up to 600 seconds, so that the time was compared with that of the solvent administered group in which amnesia had been caused by electric shock.

[2] = system: hypertensive action by angiotensin II; experiment: Inhibition on the hypertensive action by an exogenous angiotensin II in conscious rats; assay type: in vivo, Spraque-Dawley (SD) male rats; settings: oral; for ED50: Rattus norvegicus, within 6 hours after administration, read-out: ED50 (dose required for inhibiting the hypertensive action by angiotensin II to the extent of 50%); for inhibitory effect on the hypertensive action by angiotensin II: dose of 1 mg/kg or less, angiotensin II 0.1 μg/kg i.v.
Text: (§2) The angiotensin II antagonistic activities in vitro were compared on the basis of the intensities (pA2 value) of antagonizing the contraction response to angiotensin II at the isolated thoracic aorta of rabbit. The in vivo activities were examined by comparing the inhibitory effects on the hypertensive action by an exogenous angiotensin II in a non-anesthetized rat and the hypotensive effects of a renal hypertensive rat or a spontaneously hypertensive rat.
Anesthetized Spraque-Dawley (SD) male rats were cannulated into a femoral artery and a femoral vein and used for the experiment at the time when it has elapsed at least 24 hours after the operation. The hypertensive action caused by angiotensin II (0.1 μg/kg) which has been administered through the vein catheter was measured under conscious and unrestrained condition before and after administration of the compound. The artery catheter was connected to a pressure transducer to measure a mean blood pressure, and the subject compounds were orally administered in the form of a homogeneous suspension in a 0.5% aqueous carboxymethyl cellulose solution.
The intensities of the inhibitory effects within 6 hours after administration of the compound were examined on the basis of the dose of the compound required for inhibiting the hypertensive action by angiotensin II to the extent of 50% (ED50 values).

[3] = Toxicity test, oral, mice; settings: mouse, in vivo, ddY male mice 5 weeks old
Procedure: Several compounds of the present invention represented by the general formula (I) were administered orally by compulsion to ddY male mice of 5 weeks old (average weight, ca. 20 g).

[4] = system: spontaneously hypertensive rats; experiment: Hypotensive effect in spontaneously hypertensive rats (SHR); assay type: in vivo, male spontaneously hypertensive rats; settings: oral, 10 mg/kg
Procedure: The subject compounds were administered orally in the same manner as in the paragraph 1-3 to male spontaneously hypertensive rats (28 weeks old, Charles-River Co.), which were measured mean blood pressure and heart rate.

[5] = target: T1, contraction response to angiotensin II at the isolated thoracic aorta of rabbit (Oryctolagus cuniculus, UniProt P34976); experiment: In vitro angiotensin II antagonism, isolated rabbit thoracic aorta (Schild pA2); assay type: cell-based; settings: Schild plot
T1 construct: A strip of thoracic aorta of a male rabbit (2.5-3.0 kg) was prepared by the usual method; from tissue; host or cells: rabbit thoracic aorta strip
T1 sequence (P34976 1-359): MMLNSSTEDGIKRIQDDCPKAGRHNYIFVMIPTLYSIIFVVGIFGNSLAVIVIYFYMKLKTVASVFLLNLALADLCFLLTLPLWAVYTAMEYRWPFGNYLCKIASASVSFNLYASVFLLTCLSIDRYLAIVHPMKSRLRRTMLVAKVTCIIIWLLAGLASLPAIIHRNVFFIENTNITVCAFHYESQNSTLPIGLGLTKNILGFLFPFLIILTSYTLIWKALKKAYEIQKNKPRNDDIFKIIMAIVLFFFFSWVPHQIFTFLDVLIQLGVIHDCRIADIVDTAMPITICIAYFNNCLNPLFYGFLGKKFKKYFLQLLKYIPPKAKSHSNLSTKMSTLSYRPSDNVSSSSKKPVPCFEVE
Text: as §2
A strip of thoracic aorta of a male rabbit (2.5-3.0 kg) was prepared by the usual method and suspended in an organ bath containing well oxygenated Krebs-Henseleit solution at 37° C. The pA2 value was calculated according to the method described by H. O. Schild (British Journal of Pharmacology and Chemotherapeutics, 2, 189-206, 1947). A strip treated with 3-5 doses of a subject compound in an amount of 10^-6 M-10^-10 M and a strip treated with no drug were employed for obtaining a dose-response curve by angiotensin II. Log (dose ratio--1) was calculated from the shift of the dose-response curve of the subject compound, and pA2 value was obtained from the Schild plottings.

SD female rats = settings: rat, in vivo, po, 100 mg/kg
Fisher 344 male rats = experiment: Antianxiety effect, elevated plus maze; assay type: in vivo; settings: oral, 1 μg/kg, 1 hour
Procedure: as §1
To Fisher 344 male rats (5-6 weeks old), the subject compounds were orally administered at a dose of 1-100 μg/kg in the form of a homogeneous suspension or solution in a 0.5% aqueous carboxymethyl cellulose solution. Among the four arms of the elevated plus maze (a device in which four arms are intersected crosswise and connected together at a height of 50 cm from the floor), the two arms with side walls are referred to as closed arms and the two arms without side walls are referred to as open arms. […] As the indices of the behavior, the latency until stepped out from the arm first placed to the other arm and the durations in the respective arms were measured, and the other behaviors were recorded. Diazepam was used as a control agent, and the drug administered group and the solvent administered group (group to which a 0.5% aqueous carboxymethyl cellulose solution was administered)were compared for the behaviors.

| SMILES | depression of blood pressure (Renal hypertensive rats) | hypotensive effect (Renal hypertensive rats) | duration in the light chamber (ddY male mice) | latency to the dark chamber (ddY male mice) | latency into the dark chamber (passive avoidance response) [1] | ED50 [2] [mg/kg] | inhibitory effect on the hypertensive action by angiotensin II [2] | LD50 [3] [mg/kg] | depression of blood pressure [4] | hypotensive effect [4] | Kb [5] [nM] | symptom of toxicity (SD female rats) | duration out of the closed arm (Fisher 344 male rats) | transitions (Fisher 344 male rats) |
| --- | --- | --- | --- | --- | --- | --- | --- | --- | --- | --- | --- | --- | --- | --- |
| COc1c(OCc2ccc(-c3ccccc3-c3nnn[nH]3)cc2)cc(C)nc1C [Example 11, 3-methoxy-2,6-dimethyl-4-[2'-(tetrazol-5-yl)biphenyl-4-yl]methoxypyridine] | 20-26% | significant long-lasting hypotensive effect | increased | increased | significant prolongation of the latency into the dark chamber | 0.54 | significant inhibitory effects | > 1000 | approximately 20% | significant hypotensive effect | 6.31 | – | – | – |
| CCOC(=O)c1c(OCc2ccc(-c3ccccc3-c3nnn[nH]3)cc2)cc(C)nc1CC [Example 45, 3-ethoxycarbonyl-2-ethyl-6-methyl-4-[2'-(tetrazol-5-yl)-biphenyl-4-yl]methoxypyridine] | 20-26% | significant long-lasting hypotensive effect | – | – | – | 0.52 | significant inhibitory effects | > 1000 | approximately 20% | significant hypotensive effect | 6.76 | no symptom of toxicity was observed | increasing tendency | significant increase |
